Where two headings read alike, the source gives them in different places.
Columns and labels:
Experiment in all cases: MIC, sole activity (no second agent)
Assay type in all cases: cell-based
Acinetobacter baumannii = conditions: for MIC A. baumannii ATCC BAA-747 / MIC A. baumannii NCTC 13424: Table 6A, no second agent, different supplier of Cation-adjusted MHB
Description: (§1) To evaluate the potency and spectrum of the compounds both alone and in combination with another agent, susceptibility testing was performed against up to four strains of each of the four Gram negative pathogens, Escherichia coli, Pseudomonas aeruginosa, Klebsiella pneumoniae and Acinetobacter baumannii.
(§2) The inoculum was prepared by making a direct suspension of isolated colonies (selected from an 18-24 hour Mueller-Hinton agar plate) adjusted to the 0.5 McFarland standard.
(§3) The assays were performed in duplicate.
(§4) In cases where the duplicate values varied by less than 2-fold, the lower of the two values is reported. If a variation of greater than 2-fold was observed, the assay was considered non-valid. Several of the compounds were subjected to multiple tests, and where this is the case, the MIC reflects the modal value obtained.
(§5) MICs were determined as described herein, except that a different supplier of Cation-adjusted MHB was used. […] Values are reported relative to Polymyxin B.

Escherichia coli = conditions: for MIC E. coli ATCC25922 / MIC E. coli NCTC 13441: Table 6A, no second agent, different supplier of Cation-adjusted MHB; for MIC: Escherichia coli, Table 7H, second agent none
Description: as §1, §2, §3, §4, §5

Klebsiella pneumoniae = conditions: for MIC K. pneumoniae ATCC 4352 / MIC K. pneumoniae ATCC BAA-2146: Table 6A, no second agent, different supplier of Cation-adjusted MHB; for MIC: Klebsiella pneumoniae, Table 7H, second agent none
Description: as §1, §2, §3, §4, §5

Pseudomonas aeruginosa = conditions: for MIC P. aeruginosa ATCC 27853 / MIC P. aeruginosa CCUG 59347: Table 6A, no second agent, different supplier of Cation-adjusted MHB
Description: as §1, §2, §3, §4, §5

Row | Molecule | MIC A. baumannii ATCC BAA-747 (Acinetobacter baumannii) [micrograms/mL] | MIC A. baumannii NCTC 13424 (Acinetobacter baumannii) [micrograms/mL] | MIC E. coli ATCC25922 (Escherichia coli) [micrograms/mL] | MIC E. coli NCTC 13441 (Escherichia coli) [micrograms/mL] | MIC K. pneumoniae ATCC 4352 (Klebsiella pneumoniae) [micrograms/mL] | MIC K. pneumoniae ATCC BAA-2146 (Klebsiella pneumoniae) [micrograms/mL] | MIC P. aeruginosa ATCC 27853 (Pseudomonas aeruginosa) [micrograms/mL] | MIC P. aeruginosa CCUG 59347 (Pseudomonas aeruginosa) [micrograms/mL] | MIC (Acinetobacter baumannii; Acinetobacter baumannii, NCTC13424, Table 7H, A. baumannii NCTC 13424, second agent none) [µg/mL] | MIC (Escherichia coli; NCTC13441, E. coli NCTC 13441, read-out: MIC E. coli NCTC 13441) [µg/mL] | MIC (Escherichia coli; E. coli ATCC25922, read-out: MIC E. coli ATCC25922) [µg/mL] | MIC (Klebsiella pneumoniae; CCUG59349, K. pneumoniae CCUG 59349, read-out: MIC K. pneumoniae CCUG 59349) [µg/mL] | MIC (Klebsiella pneumoniae; K. pneumoniae ATCC4352, read-out: MIC K. pneumoniae ATCC4352) [µg/mL] | MIC (Pseudomonas aeruginosa; Pseudomonas aeruginosa, ATCC10145, Table 7H, P. aeruginosa ATCC 10145, second agent none, read-out: MIC P. aeruginosa ATCC 10145) [µg/mL]
1 | [3(R,S)-3-Amino-3- cyclohexanepropanoyl]-L- His- polymyxin B nonapeptide [Example A19] | 4 | 4 | 8 | 4 | 8 | 8 | 1 | 2 |  |  |  |  |  | 
2 | 2-(1- Hydroxycyclohexyl)ethanoyl polymyxin B nonapeptide [Example A15] | >8 | >8 | 8 | 8 | 4 |  | 4 | 8 |  |  |  |  |  | 
3 | 3-Methylpiperidine-3- carbonyl polymyxin B nonapeptide [Example A39] | >8 | >8 | >8 | 8 | 8 | >8 | 2 | 4 |  |  |  |  |  | 
4 | 2-(R)-(2-amino-2- cyclohexyl)ethanoyl polymyxin B nonapeptide [Example A38] | 1 | 2 | 0.5 | 2 | 0.5 | 2 | 0.5 | 1 |  |  |  |  |  | 
5 | [2-(RS)-(2-Hydroxy-2- cyclohexyl)ethanoyl]-L-Thr- L-Dap-polymyxin B heptapeptide [Example A4] | >8 | >8 | 1 | 4 | 2 |  | 2 | 2 |  |  |  |  |  | 
6 | [3(R,S)-3-Amino-3- cyclohexanepropanoyl]-Gly- polymyxin B nonapeptide [Example A7] | 4 | 8 | >8 | >8 | >8 |  | 1 | >8 |  |  |  |  |  | 
7 | 3-(R)-3-Amino-5- methylhexanoyl polymyxin B nonapeptide [Example A45] | >8 | >8 | 2 | 2 | 1 |  | 0.5 | 1 |  |  |  |  |  | 
8 | 4-[3(R,S)-3-Amino-3- cyclohexanepropanamido] piperidine-4-carbonyl polymyxin B nonapeptide [Example A28] | >8 | >8 | >8 | >8 | >8 | >8 | 2 | 4 |  |  |  |  |  | 
9 | [3(R,S)-3-Amino-3- cyclohexanepropanoyl]-L- Phe- polymyxin B nonapeptide isomer 1 [Example A20] | >8 | >8 | >8 | >8 | >8 | >8 | >8 | >8 |  |  |  |  |  | 
10 | 2-(1- (Aminomethyl)cyclohexyl) ethanoyl Polymyxin B nonapeptide [Example A30] | 8 | 8 |  | 1 | 0.5 | 1 | 0.5 | 1 |  |  |  |  |  | 
11 | [3(R,S)-3-Amino-3- cyclohexanepropanoyl]-[4R- 4-hydroxy-L-Pro]-polymyxin B nonapeptide [Example A12] | 8 | 8 | >8 | >8 | >8 |  | 2 | 4 |  |  |  |  |  | 
12 | [3(R,S)-3-Amino-3- cyclohexanepropanoyl]-L- Pro- polymyxin B nonapeptide isomer 1 [Example A8] | >8 | >8 | >8 | >8 | >8 |  | 2 | 4 |  |  |  |  |  | 
13 | CO[C@@H]1[C@@H](OC(N)=O)[C@@H](O)[C@H](Oc2ccc3c(O)c(NC(=O)c4ccc(O)c(CC=C(C)C)c4)c(=O)oc3c2C)OC1(C)C [Novobiocin, reference compound] |  |  |  |  |  |  |  |  | 4 | > 32 | 16 | > 32 | 0.25 | > 32
14 | D-Pro polymyxin B nonapeptide [Example A36] | 8 | 8 | 2 | 2 | 1 | 8 | 1 | 4 |  |  |  |  |  | 
15 | 2-(RS)-2-aminooctyl polymyxin B decapeptide [Example A5] | 1 | 2 | 0.5 |  | 0.5 | 0.5 | 0.25 | 0.5 |  |  |  |  |  | 
16 | 5-Hydroxypiperidine-3- carbonyl polymyxin B nonapeptide [Example A50] |  | 2 | 1 | 2 | 0.25 | 2 | 1 | 2 |  |  |  |  |  | 
